Assay [1] has as its target T1, lipoprotein lipase (Homo sapiens, UniProt P06858).
T1 sequence (P06858 28-475): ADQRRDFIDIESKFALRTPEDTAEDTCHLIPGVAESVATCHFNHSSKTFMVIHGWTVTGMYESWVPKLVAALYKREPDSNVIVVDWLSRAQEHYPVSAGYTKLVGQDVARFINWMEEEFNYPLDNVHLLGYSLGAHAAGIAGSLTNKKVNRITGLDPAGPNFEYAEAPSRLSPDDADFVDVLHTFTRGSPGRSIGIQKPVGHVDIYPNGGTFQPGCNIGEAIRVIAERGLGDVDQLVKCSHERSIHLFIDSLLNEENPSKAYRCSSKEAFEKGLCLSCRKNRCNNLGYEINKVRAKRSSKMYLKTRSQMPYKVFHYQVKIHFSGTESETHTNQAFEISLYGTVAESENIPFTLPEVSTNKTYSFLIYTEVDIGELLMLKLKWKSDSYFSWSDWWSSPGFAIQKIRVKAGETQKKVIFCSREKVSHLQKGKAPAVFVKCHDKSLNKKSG
Description: Inhibition of lipoprotein lipase, glycerol stabilized triolein substrate. The format is biochemical. As to conditions: test compound 100 μM.

Assay [2] deals with T2, recombinant hormone-sensitive lipase (Homo sapiens, UniProt Q05469).
T2 construct: made in house
T2 sequence (Q05469 1-1076): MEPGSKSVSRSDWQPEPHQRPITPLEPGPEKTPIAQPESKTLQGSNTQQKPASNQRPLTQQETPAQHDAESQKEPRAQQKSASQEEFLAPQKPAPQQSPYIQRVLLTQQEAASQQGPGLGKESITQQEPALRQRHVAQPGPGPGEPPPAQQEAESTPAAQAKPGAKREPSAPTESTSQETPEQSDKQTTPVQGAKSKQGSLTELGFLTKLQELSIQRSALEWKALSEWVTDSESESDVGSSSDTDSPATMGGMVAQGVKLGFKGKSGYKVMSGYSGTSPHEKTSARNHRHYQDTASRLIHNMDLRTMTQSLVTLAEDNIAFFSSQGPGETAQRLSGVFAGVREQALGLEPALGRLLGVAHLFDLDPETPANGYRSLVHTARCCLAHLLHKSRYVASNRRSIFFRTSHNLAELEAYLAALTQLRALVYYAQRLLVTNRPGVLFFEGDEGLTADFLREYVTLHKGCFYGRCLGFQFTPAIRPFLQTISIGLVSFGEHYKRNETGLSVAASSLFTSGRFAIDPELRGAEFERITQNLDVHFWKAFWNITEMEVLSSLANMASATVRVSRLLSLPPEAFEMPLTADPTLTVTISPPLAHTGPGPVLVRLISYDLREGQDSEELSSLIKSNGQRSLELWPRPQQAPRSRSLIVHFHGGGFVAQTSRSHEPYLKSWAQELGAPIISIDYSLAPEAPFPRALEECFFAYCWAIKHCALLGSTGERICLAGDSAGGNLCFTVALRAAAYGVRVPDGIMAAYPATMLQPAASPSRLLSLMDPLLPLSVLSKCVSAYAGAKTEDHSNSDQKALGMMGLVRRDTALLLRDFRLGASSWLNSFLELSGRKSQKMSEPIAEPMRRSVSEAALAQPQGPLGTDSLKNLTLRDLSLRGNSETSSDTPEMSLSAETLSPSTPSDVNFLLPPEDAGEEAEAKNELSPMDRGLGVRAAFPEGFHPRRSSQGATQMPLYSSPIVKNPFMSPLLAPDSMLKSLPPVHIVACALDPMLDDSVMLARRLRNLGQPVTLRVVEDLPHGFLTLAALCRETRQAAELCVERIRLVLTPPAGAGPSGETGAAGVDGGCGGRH
Description: Inhibition of recombinant (purified) hormone-sensitive lipase on glycerol-stabilized triolein. As to conditions: test compound 100 μM, read-out: % inhibition Purified HSL. It counts as biochemical. On the procedure:
Recombinant hormone-sensitive lipase protein isolated from a bacterial expression vector was pre-incubated with a compound of the invention (e.g., 100 μM) prior to the addition of substrate, emulsified triolein phosphatidylcholine/phosphatidylinositol (PC/PI), to initiate the reaction. At various time points, aliquots of the reaction were taken, and the level of glycerol used as an index of enzyme activity. Pharmacological specificity is determined by incubating test compound with other mammalian and non-mammalian lipase enzyme systems to assess inhibition of activity. […]
In a similar manner to that described in Example 4 above, 2α-benzoyloxy-4,5,7,8,11αH-eudesman-8,12-olide at 100 μM was evaluated for ability to activity of recombinant hormone-sensitive lipase and hormone-sensitive lipase derived from a preparation of 3T3-cell lysate on glycerol-stabilized triolein.

The structures appear in SMILES notation. Where two headings read alike, the source gives them in different places.

Usually inhibition stands for the drop in the measured response relative to a control, in per cent.

As for `CC1C[C@H](OC(=O)c2ccccc2)C[C@]2(C)C[C@H]3OC(=O)[C@@H](C)[C@H]3CC12` (stereo partly drawn) [2α-benzoyloxy-4,5,7,8,11αH-eudesman-8,12-olide], the “inhibition of lipoprotein lipase (in words)” value in assay [1] is given as “failed to significantly inhibit”. In addition, the “Lipoprotein Lipase + test compound (enzyme activity)” value was found to be 0.7 in assay [1] (triolein substrate 30 μM); 1.8 in assay [1] (triolein substrate 67 μM); 4.9 in assay [1] (triolein substrate 134 μM); 10.3 in assay [1] (triolein substrate 264 μM); 67.4 in assay [1] (triolein substrate 1000 μM). The inhibition at 100 µM in assay [2] (triolein 30 μM) turned out to be 77%; in assay [2] (triolein 67 μM), 78%; in assay [2] (triolein 100 μM), 82%; in assay [2] (triolein 201 μM) it was 64%; in assay [2] (triolein 400 μM), 50%; in assay [2] (triolein 601 μM), 40%. Further, the results for the inhibition at 100 µM in assay [2] (triolein 800 μM) and in assay [2] (triolein 1000 μM) were 18% and 27%, respectively.

Values taken from patent US20020151581A1, “Glucose and lipid lowering compounds” (priority 1998, published 2002).
